Here are results for one compound from patent US20230345943A1, “METHOD AND PROCESS FOR COMPLETE ELIMINATION OF VARIOUS STEPS OF PEST GROWTH IN PLANTS USING DI[…] BASED ON ETHA[…] AND HYDROGEN PEROXIDE” (priority 2020, published 2023).

The structures appear in SMILES notation.

One experiment has as its system Chilo suppressalis. The experiment in a line: Field protocol against Chilo suppressalis in rice. The experiment is classed as in vivo. Conditions: six-step protocol, dosage of 1 to 2 in one thousand from transplantation treasury to before harvest. From the text: In this invention ethaneperoxoic acid used for the first time to fight with Chilo suppressalis with the below mentioned method: • Step 1: The dosage of 1 in one thousand in the transplantation treasury; • Step 2: At the time of transferring the seedlings to the field with the dosage of 1 in one thousand to fight with the first generation; • Step 3: 10 days after transferring the seedlings to the field with the dosage of 1 in one thousand to fight with the second generation; • Step 4: 30 days after transferring the seedlings to the field with the dosage of 1 in one thousand; • Step 5: 45 days after transferring the seedlings to the field with the dosage of 2 in one thousand and 1 in one thousand to fight with the third generation; • Step 6: before harvesting the rice with the dosage of 2 in one thousand.

Experiment [1] relates to fungus, bacteria and viruses and plant pests in all stages such as eggs, larva, adults. In words: Spray with wetting agent to control plant pathogens and pests. The experiment is classed as in vivo. Conditions: 3 liters (active ingredient at least 20%) plus 500 cc of non-ionic fatty amine compounds in 1000 liters of water. An excerpt:
For longer durability of Ethaneperoxoic acid based compounds, non-ionic fatty amine compounds (wetting agent) should be used in this method for the first time in two different ways, both within the formulation or added separately to the compound. These compounds cause the Ethaneperoxoic acid that is sprayed on the target to increase the duration of exposure of Ethaneperoxoic acid to the chitin surface of insects due to the reduction of surface tension of water droplets.

Turning to `CC(=O)OO` [ethaneperoxoic acid], in the experiment on Chilo suppressalis, the “damage due to the Chilo suppressalis” value is reported as “completely control”. Further, the “effect in controlling fungus, bacteria and viruses and plant pests in all stages” value in experiment [1] is given as “significant impressive effect”.
